The values below come from US20050148661A1 (priority 2002, published 2005).

In series [1] the test system is potassium ion currents. Nature of the series: current and voltage clamp on axon isolated from cockroaches (double oil separation technique). Format: cell-based. The following applies: applied externally; isolated cockroach axon.
The conditions of series [2]: cited from earlier work.
The test system of series [3] is sodium ion currents. Nature of the series: current and voltage clamp on axon isolated from cockroaches (double oil separation technique). Format: cell-based. The following applies: applied externally; isolated cockroach axon.
Series [4] concerns calcium channels. Nature of the series: electrophysiological study of the effect on calcium channels. Type of series: cell-based, cockroaches. As to the method: An electrophysiological study was carried out in vitro by: • a) current and voltage clamp techniques on axon isolated from cockroaches with the double oil separation technique, • b) patch clamp techniques in whole cell configuration on DUM neurons (dorsal unpair median neuron) from cockroaches (DEA Laurence Gamelin, Etude de la neurotoxicité d'un dérivé du platine, l'oxaliplatine, par une approche électrophysiologique, Paris VII (1999)).
Indeed, BAPTA, a calcium chelator, gave an identical sodium channel inhibition curve. […] This blocking of the sodium channels causes abnormalities in the action potential of the neuron, that is to say neuronal depolarization disorders and potentially disturbances in the transmission of the impulse.

Series [5] relates to sodium channels. Kind of series: patch clamp in whole cell configuration on DUM neurons. Format: cell-based, cockroaches. Background: Patch clamp records ionic current or voltage across a cell membrane.
For series [6] the following is noted: after a cumulative dose of 750-850 mg/m^2; cited from earlier work.
Series [7] is described as follows: clinical study: prevention of the neurotoxicity of oxaliplatin by calcium and magnesium infusion (103 treatments).
Series [8] is described as follows: oxalate and ions in plasma and urine of patients treated with oxaliplatin.
The nature of series [9]: clinical cases 1 to 3: oxaliplatin cycles with or without calcium and magnesium infusion.
Setting [10] is: patients treated with oxaliplatin.
Where [11] appears, read: case 3, C6, without calcium and magnesium.
The mark [12] stands for this setting: case 3, cycles C3, C4, C5, without calcium and magnesium.

`N[C@@H]1CCCC[C@H]1N.O=C([O-])C(=O)[O-].[Pt+2]` (relative stereo) [oxaliplatin, 1,2-diamine cyclohexane (trans-1)oxalatoplatinum]: in [1], the “modification in the potassium ion currents” value is “no significant modification”. Also, the “share penetrating unchanged into the cell” value in series [2] (FIG. 1) is 70%. Besides, in series [2] (first stage of metabolism), the “share of oxalate release / dichlorodachplatin formation carried out in the intracellular medium” value is reported as 70% and the “share of oxalate release / dichlorodachplatin formation carried out in the plasma medium” value is reported as 30%. Moreover, the “modification in the sodium ion currents” value in series [3] is “no significant modification”. Besides, the “effect on the calcium channels” value in [4] is “no significant effect”. For the same compound, the “amplitude of the action potential over time” value in series [5] (current clamp, whole cell patch clamp, DUM neurons) is listed as “reduction in the amplitude of the action potential over time”. For the same compound, the “plateau of sodium current reduction (inhibition)” value in series [5] (voltage clamp, DUM neurons) came to 60%. In addition, the “reduction in the sodium current” value in [5] (voltage clamp, over 10 minutes) came to 50%. The “frequency of the grade 3 neuropathy” value in series [6] was 15-20%. Besides, in [7] (after prolonged treatment, even with chronic persistent neuropathy, combined with infusion of calcium and magnesium), the “total dose after which oxaliplatin can be reintroduced” value is reported as “up to 780 mg/m^2”. Moreover, the “patients with no neurological manifestation” value in series [7] (cycle 6, in the absence of calcium and magnesium) is recorded as 12%. Further, in series [7] (group of patients without calcium or magnesium), the “discontinuations linked to progression of the disease” value was determined as 44%. In addition, the “toxic causes for discontinuation: neuropathy” value in series [7] (group without calcium and magnesium) was found to be 56%. Further, in [8] (setting [10]), the “oxalate in plasma (normally undetectable)” value is “significant concentrations”; the “plasma concentrations of calcium (total, ionized) and of magnesium (total and overall)” value was “without any variation”. The “calciuria, kaliuria and magnesuria” value in series [8] (within 5 hours following the start of infusion) is reported as “rise”. In series [8] (within 5 hours following the start of infusion of oxaliplatin), the “urinary elimination of oxalate” value is “substantial”. Besides, in series [9] (case 2, cycle 1, 5-FU, folinic acid + oxaliplatin 130 mg/m^2/21 days, no calcium and magnesium), the “distal and perioral paresthesia” value is recorded as “grade 3”. The diarrhea result in series [9] (case 2, cycle 1, no calcium and magnesium) is given as “grade 3”. For the same compound, in series [9] (setting [11]), the “neuropathy, NCI” value was “grade 3” and the “neuropathy, specific scale” value amounted to 3. The “duration of the incapacitating neuropathy” value in [9] (case 3, after C6, without calcium and magnesium) turned out to be 18 months. Besides, the “distal, perioral paresthesia, NCI” value in [9] (case 3, cycles 1 and 2, 5-FU, folinic acid + oxaliplatin 130 mg/m^2/3 weeks without calcium and magnesium) is reported as “grade 2”. For the same compound, the “distal, perioral paresthesia, specific scale” value in series [9] (case 3, cycles 1 and 2, without calcium and magnesium) is recorded as “grade 1”. Further, in [9] (setting [12]), the “neuropathy, NCI” value is “grade 2” and the “neuropathy, specific scale” value is given as 2.

Turning to `O=C(O)CN(CC(=O)O)c1ccccc1OCCOc1ccccc1N(CC(=O)O)CC(=O)O` [BAPTA], the “sodium channel inhibition curve compared with oxaliplatin” value in [5] (calcium chelator tested) was “identical”.

With `NC1CCCCC1N.[Cl][Pt][Cl]` (centres unmarked) [Dach platin, diaminecyclohexaneplatinum], in [5], the “effect of other platinum salts (sodium channels)” value (“effect of other platinum salts” below) is listed as “no effect”.

With `[Ca]` [calcium], the “reduction of risk of neurological manifestations at a distance from oxaliplatin administration” value in series [7] (calcium by the oral route) is recorded as “effective”.

As for `N.N.O=C([O-])C1(C(=O)[O-])CCC1.[Pt+2]` [carboplatin], the “effect of other platinum salts” value in series [5] was “no effect”.

Take `N.N.[Cl][Pt][Cl]` [cisplatin]: in series [5], the “effect of other platinum salts” value is “no effect”.
